The test system of assay [1] is MGC803 cells of stomach cancer. The assay is described as follows: transwell migration test. It is filed as cell-based, human. The note with it: 24 h. As for the experimental part:
Inoculate SCC4 cells of head and neck cancer, SW579 cells of thyroid cancer, A549 cells of lung cancer, TE13 cells of esophageal squamous cell carcinoma, MGC803 cells of stomach cancer, MDA-MB-231 cells of breast cancer, UOK262 cells of kidney cancer, and A431 cells of skin cancer of human to transwell cells, 100 μL per well, and meanwhile add micropeptides HMMW I to IX at different doses to every cell. Add 0.6 mL of complete medium containing 10% FBS to the transwell cells to stimulate cell migration, and culture in 5% CO2 at 37 DEG C. for 24 h. Discard the medium in the wells, fix with 90% alcohol at room temperature for 30 min, stain with 0.1% crystal violet at room temperature for 10 min, rinse with clear water, gently wipe off the non-migrated cells in the upper layer with a cotton swab, observe under a microscope and select four fields of view to take pictures and count. Calculate the migration inhibition rate (MIR) of the cells according to the following formula: […]
The test was repeated independently three times. Mean±SD was calculated based on the test results. Statistical t test was done. Here, “the test was repeated independently three times” means that every dose of any type of cells was tested repeatedly three times, and then the above formula was used to calculate the number of migrated cells (Mean±SD). Value P was used to express statistical difference. The statistical significance of the results is a method for estimating how true the results are (the totality can be represented), *P<0.05 means significant difference, and **P<0.01 means very significant difference.

Assay [2] deals with MDA-MB-231 cells of breast cancer. The assay is classed as in vivo, BALB/c nude mice. The note with it: mouse, in vivo, 15 mg/kg. As to the method:
(§1) • (1) Massively culture SCC4 cells of head and neck cancer, SW579 cells of thyroid cancer, A549 cells of lung cancer, TE13 cells of esophageal squamous cell carcinoma, MGC803 cells of stomach cancer, MDA-MB-231 cells of breast cancer, UOK262 cells of kidney cancer, and A431 cells of skin cancer of human, digest with a 0.25% pancreatin solution, centrifuge the cell suspension at 1,000 rpm for 5 min after termination of digestion, re-suspend the cells by serum-free DMEM culture medium, then count the cells and adjust cell concentration to 5×10^7 cells/ml; • (2) Inoculate each nude mouse (female mice at the age of 4-6 weeks and with a weight of 14-16 g were ordered and adaptively reared for 1 week in an SPF animal breeding room) with 100 μl of the cell suspension of the corresponding group in the left armpit, and the number of cells injected is 5×10^6; • (3) After inoculation, the tumor growth at the inoculation sites of nude mice was closely observed. On the 7th day after inoculation, white scabs appeared at the inoculation sites, which could move subcutaneously after being touched. With the growth of tumor tissue, hard tumor masses were gradually formed at the inoculation sites. On about the 14th day, the average volume of the tumor tissue reached 100 mm^3. BALB/c nude mice were randomly divided into three groups (the normal saline group was a blank control group, the micropeptide HMMW at a dose of 10 mg/kg was a low-dose group, and the micropeptide HMMW at a dose of 15 mg/kg was a high-dose group), 6 mice in each group, and the animals weighed 16-18 g at the beginning of administration; • (4) The volume of the transplanted tumor was measured and recorded every two days. The calculation formula of tumor volume (TV) is shown below: TV=0.5×a×b^2 • where, a is the length of the transplanted tumor (mm), and b is the width of the transplanted tumor (mm). • (1) Massively culture SCC4 cells of head and neck cancer, SW579 cells of thyroid cancer, A549 cells of lung cancer, TE13 cells of esophageal squamous cell carcinoma, MGC803 cells of stomach cancer, MDA-MB-231 cells of breast cancer, UOK262 cells of kidney cancer, and A431 cells of skin cancer of human, digest with a 0.25% pancreatin solution, centrifuge the cell suspension at 1,000 rpm for 5 min after termination of digestion, re-suspend the cells by serum-free DMEM culture medium, then count the cells and adjust cell concentration to 5×10^7 cells/ml; • (2) Inoculate each nude mouse (female mice at the age of 4-6 weeks and with a weight of 14-16 g were ordered and adaptively reared for 1 week in an SPF animal breeding room) with 100 μl of the cell suspension of the corresponding group in the left armpit, and the number of cells injected is 5×10^6; • (3) After inoculation, the tumor growth at the inoculation sites of nude mice was closely observed. On the 7th day after inoculation, white scabs appeared at the inoculation sites, which could move subcutaneously after being touched. With the growth of tumor tissue, hard tumor masses were gradually formed at the inoculation sites. On about the 14th day, the average volume of the tumor tissue reached 100 mm^3. BALB/c nude mice were randomly divided into three groups (the normal saline group was a blank control group, and each of micropeptides HMMW I to IX formed a group at a dose of 15 mg/kg), 6 mice in each group, and the animals weighed 16-18 g at the beginning of administration; • (4) The volume of the transplanted tumor was measured and recorded every two days. The calculation formula of tumor volume (TV) is shown below: TV=0.5×a×b^2 • where, a is the length of the transplanted tumor (mm), and b is the width of the transplanted tumor (mm).

Assay [3] relates to MGC803 cells of stomach cancer. It is filed as in vivo, BALB/c nude mice. Particulars: mouse, in vivo, 15 mg/kg. As to the method: as §1
Assay [4] deals with A549 cells of lung cancer. The assay is classed as in vivo, BALB/c nude mice. The note with it: mouse, in vivo, 15 mg/kg. As for the experimental part: as §1
For assay [5], the system named is SCC4 cells of head and neck cancer. The assay is classed as in vivo, BALB/c nude mice. The note with it: mouse, in vivo, 15 mg/kg. As to the method:
as §1

For assay [6], the system named is SW579 cells of thyroid cancer. The assay is classed as in vivo, BALB/c nude mice. The note with it: mouse, in vivo, 15 mg/kg. As to the method: as §1
The subject of assay [7] is UOK262 cells of kidney cancer. The assay is classed as in vivo, BALB/c nude mice. The note with it: mouse, in vivo, 15 mg/kg. As for the experimental part:
as §1

Assay [8] has as its system A431 cells of skin cancer. It is filed as in vivo, BALB/c nude mice. The note with it: mouse, in vivo, 15 mg/kg. As for the experimental part: as §1
Assay [9] relates to TE13 cells of esophageal squamous cell carcinoma. It is filed as in vivo, BALB/c nude mice. Particulars: mouse, in vivo, 15 mg/kg. As to the method:
as §1

No end group written: not given here.

Take “MGSTYNKRHSPRRSSVEAKMQSTSCSVRKSSTVTAWPAVVLLLSWGQRRGG-OH [HMMW-III]”: the migration inhibition rate in assay [1] (dose 1 μM) amounted to 25.61%; in assay [1] (dose 4 μM), 52.45%; in [1] (dose 16 μM), 74.80%. In addition, the “in vivo tumor growth inhibition rate” value in assay [2] came to 69.49%; in assay [3] it was 69.62%; in assay [4] it was 73.08%; in assay [5] it was 70.84%; in assay [6], 71.89%; in [7] it was 61.67%. Besides, the “in vivo tumor growth inhibition rate” value in [8] was found to be 69.54%; in assay [9], 66.31%.
As to “MGSTYNPGFSPRRSSVEAKMQSTSCSVRKSSTVTAWPAVVLLLSWGQRRGG-OH [HMMW-V]”, the migration inhibition rate in [1] (dose 1 μM) came to 27.64%; in assay [1] (dose 4 μM), 54.41%; in assay [1] (dose 16 μM), 75.82%. The “in vivo tumor growth inhibition rate” value in assay [2] is reported as 67.75%; in [3], 71.04%; in assay [4], 71.12%; in assay [5], 67.14%; in assay [6], 70.78%; in assay [7], 64.16%. The “in vivo tumor growth inhibition rate” value in assay [8] is 69.41%; in assay [9], 63.46%.

The values above are taken from patent US12565522B2, “Micropeptide HMMW and application thereof” (NANJING ANJI BIOTECHNOLOGY CO., LTD., priority 2019, dated 2026).
